Test results reported in article PMC3592886, “Utilization of Quantitative In Vivo Pharmacology Approaches to Assess Combination Effects of Everolimus and Irinotecan in Mouse Xenograft Models of Colorectal Cancer” (PLoS ONE, 2013).
Read-outs that look alike come from different tables or passages of the source. Marks after values point to notes of the source that are not given here.

Legend:
[1] = system: ribosomal phospho-S6 kinase (pS6RP); assay: Western blot, pS6RP in CRC cell lines; format: cell-based; conditions: everolimus 20 nM, 24 hours, all cell lines
Experimental: Cells were seeded into 6-well plates 24 hours prior to treatment with each drug alone or in combination for 24 hours. Cells were scraped into RIPA buffer containing protease inhibitors, EDTA, NaF, and sodium orthovanadate. Total protein was determined using the Pierce 660 nm Protein Assay (Pierce, Rockford, IL). Thirty micrograms of total protein was loaded onto a 4–12% gradient gel, electrophoresed and transferred to nitrocellulose using the iBlot system (Invitrogen, Carlsbad, CA). Membranes were blocked for one hour at room temperature with Licor Blocking Buffer (Licor, Lincoln, NE) prior to overnight incubation at 4°C with one of the following antibodies: pS6RP, tS6RP, pAKT, tAKT, pERK, tERK, p21, PARP, actin and α-tubulin (Cell Signaling, Beverly, MA). All antibodies were used at a 1∶1000 dilution except for pERK, which was used at 1∶2000. Following primary antibody incubation, blots were washed in TBS-Tween(0.1%), then incubated with the appropriate secondary antibody at 1∶15,000 (Licor, Lincoln, NE) for one hour at room temperature. After three additional washes, blots were developed using the Licor Odyssey (Licor, Lincoln, NE).

[2] = Human pharmacokinetics of everolimus from the literature; format: in vivo; conditions: humans at the clinically used doses of 5 to 10 mg per day; 75% plasma protein binding used; from data of ref 25, 26
Description: For in vivo studies, we established doses of everolimus and irinotecan to administer to mice that would yield exposures at or below clinically achievable levels. Human pharmacokinetic information on everolimus, [26] and irinotecan/SN38 [27]–[30] was gathered from the literature and is presented in Tables 1 and 2 respectively.

[3] = system: HT29 cells; assay: Sulforhodamine B (SRB) anti-proliferation assay, HT29; format: cell-based
Experimental: Cytoxic effects were determined using the sulforhodamine B (SRB) assay. Briefly, 5000 viable cells were plated into 96-well plates and incubated overnight prior to exposure with different concentrations of drugs. Cells were exposed to increasing concentrations of everolimus (0–200 nM), SN38 (0–8 nM), and combinations of the two. Following a 72 hour incubation, media was removed and cells were fixed with cold 10% trichloroacetic acid for 30 minutes at 4° C. Cells were washed with water and stained with 0.4% SRB for 30 minutes at room temperature. Cells were washed again with 1% acetic acid and stain was solubilized with 10 mM tris at room temperature and read at an OD of 565 nm. […] The resulting Combination Index (CI) was used as a quantitative measure of the degree of interaction between different drugs. A CI value equal to 1 denotes additivity; CI greater than 1, antagonism; CI less than 1, synergism.

[4] = Pharmacokinetic study of everolimus in mice bearing HT29 tumors (plasma and tumor, LC/MS/MS); format: in vivo; conditions: for Cmax / Tmax / AUC(0-t) / CL/F / Vd/F / half-life: nude; for CL/F: read-out: CLss/F (converted); for Vd/F: read-out: Vz/F; for half-life: read-out: t½ (converted)
Experimental: A pharmacokinetic study of everolimus was conducted in mice bearing HT29 tumors (average volume ∼300 mm^3). Mice were treated with either 2.5 or 10 mg/kg everolimus daily for 7 days by oral gavage. Three mice per dose level were sacrificed by cardiac stick exsanguination at 30 minutes, 2, 4, 6 and 24 hours following drug administration on day 7. Plasma and tumor tissue were snap-frozen in liquid N2 and stored at −70°C until analyzed.
Everolimus was measured in plasma and tumors by LC/MS/MS assay. Analytical standards, quality control (QC) and unknowns were all prepared by adding 200 µl of unknown or spiked blank plasma or tumor homogenate (100 mg/ml in water) samples to a 1.5 ml microcentrifuge tube. Samples were extracted by the addition of 1 ml methyl tert-butyl ether (MTBE) followed by 10 min vortex mixing. Samples were centrifuged at 13,000 RPM for 10 min and the supernatant collected and 900 µl transferred to a clean glass test tube. Samples were evaporated to dryness using a rotary evaporator followed by re-suspension in 100 µl of 50% acetonitrile/50% 10 mM ammonium acetate and transferred to auto-sampler vials for analysis. Mass spectra for extracted samples was obtained on a MDS Sciex 3200 Q-TRAP triple quadrupole mass spectrometer (Applied Biosystems, Inc., Foster City, CA) with a turbo ionspray source interfaced to an Agilent 1200 Series Binary Pump SL HPLC system (Santa Clara, CA).The lower and upper limits of quantitation for the assay were 1 and 5000 nM, respectively. Accuracy and precision (% RSD) based on analysis of standards and QC samples for this assay were 90.7% and 5.5% for plasma and 93.0% and 4.2% for tumor. Additional details may be found in Supplement S1 (section SA.1.).
Plasma and tumor pharmacokinetic parameters were calculated by noncompartmental analysis with WinNonlin. Everolimus plasma data was fit to a two-compartment model with first-order absorption and simulations of plasma concentrations at a 5 mg/kg dose of everolimus were performed by SAAM II version 2.1 (The Epsilon Group, Charlottesville, VA/University of Washington).

[5] = system: HCT116 tumors; assay: NMR-based metabolomics of HCT116 tumors; format: in vivo, mice; conditions: end of study
Experimental: When HT29 and HCT116 tumors reached an average volume of ∼325 mm^3 animals were randomized into four treatment groups (n = 9–10 mice per group): (i) vehicles, (ii) 5 mg/kg everolimus (RAD) by oral gavage (PO) daily, (iii) 10 mg/kg irinotecan (IRI) once weekly by intravenous (iv) tail vein injection, and (iv) a combination of RAD and IRI. Everolimus, diluted in sterile water, and irinotecan, diluted in sterile 0.9% saline, were administered at 4 mL/kg. Animals were treated for 28 days. Tumor volumes and body weights were measured 2–3 times weekly. On day 28 of treatment 3–6 animals per group were sacrificed, approximately 24 hours following everolimus treatment, and tumors harvested for metabolomic analysis.
For metabolomic analysis, animals were fasted for 4 hours then received 250 mg/kg of [1-^13C] glucose (Cambridge Isotopes, Cambridge, MA) by IV injection 60 minutes prior to tumor harvesting. Snap-frozen tumor specimens underwent two-phase acid extraction procedure (using 8% perchloric acid) previously established and extensively published [19]–[22]. Further details may also be found in Supplement S1 (section SA.2.).

[6] = 2.5 mg/kg daily oral for 7 days, Mouse, plasma, steady-state
[7] = 10 mg/kg daily oral for 7 days, Mouse, plasma, steady-state
[8] = mouse, po, HT29 tumor, 2.5 mg/kg, mice
[9] = mouse, po, HT29 tumor, 10 mg/kg, mice
[10] = mouse, po, plasma, 2.5 mg/kg, mice, non-compartmental analysis
[11] = mouse, po, plasma, 10 mg/kg, mice, non-compartmental analysis

SMILES: CO[C@H]1C[C@@H]2CC[C@@H](C)[C@@](O)(O2)C(=O)C(=O)N2CCCC[C@H]2C(=O)O[C@H]([C@H](C)C[C@@H]2CC[C@@H](OCCO)[C@H](OC)C2)CC(=O)[C@H](C)/C=C(\C)[C@@H](O)[C@@H](OC)C(=O)[C@H](C)C[C@H](C)/C=C/C=C/C=C/1C [Everolimus, 40-O-(2-hydroxyethyl)-rapamycin]
- effect on ribosomal phospho-S6 kinase (pS6RP) [1]: able to inhibit
- AUCss,free (steady-state free plasma exposure) [2]: 60 to 178 ng·h/mL
- %Growth Inhibition ([3]; HT29, RAD (20 nM), SN38 (4 nM) or the combination of the two, Figure 2): 74%
- IC50 ([3]; Homo sapiens, HT-29, HT29 cells): 1.2 nM
- Cmin [4, 6]: 12±6 ^b ng/mL
- Cmin [4, 7]: 59±5 ^b ng/mL
- AUCss,free (steady-state free plasma exposure) ([4]; 10 mg/kg in mice, 99% plasma protein binding used): 116 ng·h/mL
- Cmax [4, 8]: 52 nM
- Tmax [4, 8]: 0.5 h
- AUC(0-t) ([4]; mouse, po, HT29 tumor, 2.5 mg/kg, mice, read-out: AUC0→24): 0.742 µM·h
- Cmax [4, 9]: 250 nM
- Tmax [4, 9]: 4 h
- AUC(0-t) ([4]; mouse, po, HT29 tumor, 10 mg/kg, mice, read-out: AUC0→24): 3.93 µM·h
- Cmax [4, 10]: 365 nM
- Tmax [4, 10]: 0.5 h
- AUC(0-t) ([4]; mouse, po, plasma, 2.5 mg/kg, mice, non-compartmental analysis, read-out: AUC0→24): 2 µM·h
- CL/F [4, 10]: 20 mL/min/kg
- Vd/F [4, 10]: 10.8 L/kg
- Cmax [4, 11]: 1760 nM
- Tmax [4, 11]: 0.5 h
- AUC(0-t) ([4]; mouse, po, plasma, 10 mg/kg, mice, non-compartmental analysis, read-out: AUC0→24): 12.1 µM·h
- CL/F [4, 11]: 13.8 mL/min/kg
- Vd/F [4, 11]: 6 L/kg
- Cmax [4, 6]: 350 ± 230 ng/mL
- AUC(0-t) ([4]; 2.5 mg/kg daily oral for 7 days, Mouse, plasma, read-out: AUC0→t): 1920 ng·h/mL
- half-life ([4]; 2.5 mg/kg daily oral for 7 days, Mouse, plasma): 6 h
- Cmax [4, 7]: 1680 ± 277 ng/mL
- AUC(0-t) ([4]; 10 mg/kg daily oral for 7 days, Mouse, plasma, read-out: AUC0→t): 11600 ng·h/mL
- half-life ([4]; 10 mg/kg daily oral for 7 days, Mouse, plasma): 5 h
- effects on glucose metabolism [5]: decrease in lactate and glycolysis
